According to ChEMBL document CHEMBL1133392, “Synthesis of a dihydroxythiophene analogue of catechosporines” (2000):
In brackets after ≈: the same amount, converted by molar mass.

Assays:
[1] = test system: Pseudomonas aeruginosa; assay: In vitro for minimum inhibitory concentration against Pseudomonas aeruginosa (40 strains); assay type: functional
[2] = test system: Staphylococcus aureus; assay: In vitro minimum inhibitory concentration against Staphylococcus aureus (20 strains); assay type: functional

Compound | MIC [1] [µg/mL] | MIC [2] [µg/mL]
N#Cc1cc(C(O/N=C(\C(=O)N[C@@H]2C(=O)N3C(C(=O)[O-])C(/C=C/C[n+]4cccc5ccsc54)CS[C@H]23)c2csc(N)n2)C(=O)O)cc(O)c1O (stereo partly drawn) | 0.06 (≈ 0.0815 µM) | 1.4 (≈ 1.9 µM)
N#Cc1sc(C(O/N=C(\C(=O)N[C@@H]2C(=O)N3C(C(=O)[O-])C(/C=C/C[n+]4cccc5ccccc54)CS[C@H]23)c2csc(N)n2)C(=O)O)c(O)c1O (stereo partly drawn) | 38 (≈ 51.6 µM) | 0.17 (≈ 0.231 µM)
N#Cc1ccc(C(O/N=C(\C(=O)N[C@@H]2C(=O)N3C(C(=O)[O-])C(/C=C/C[n+]4cccc5ccsc54)CS[C@H]23)c2csc(N)n2)C(=O)O)c(O)c1O (stereo partly drawn) | 0.12 (≈ 0.163 µM) | 3.6 (≈ 4.89 µM)
Nc1nc(/C(=N/OC(C(=O)O)c2cc(O)c(O)cn2)C(=O)N[C@@H]2C(=O)N3C(C(=O)[O-])C(/C=C/C[n+]4cccc5ccsc54)CS[C@H]23)cs1 (stereo partly drawn) | 3.12 (≈ 4.38 µM) | 0.92 (≈ 1.29 µM)
